# Reference: ChEMBL document CHEMBL4330081, “Rational design of 5-((1H-imidazol-1-yl)methyl)quinolin-8-ol derivatives as novel bromodomain-containing protein 4 inhibitors” (Eur J Med Chem, 2019)
# Active and inactive are the calls of the source. The calls are words filed in the database; no cut-off is given here.
# How the values were obtained:
# [1] = target: T1, Bromodomain-containing protein 4 (Homo sapiens, UniProt O60885); experiment: Inhibition of BRD4 BD1 (unknown origin) at 50 uM using biotin labelled NeC: SGRG-K(Ac)-GG-K(Ac)-GLG-K(Ac)-GGA-K(Ac)-RHRKVGG-K as substrate preincubated for 15 mins followed by substrate addition measured after 30 mins by alpha screen assay relative to control
# [2] = target: T1, Bromodomain-containing protein 4; experiment: Inhibition of BRD4 BD1 (unknown origin) at 10 uM using biotin labelled NeC: SGRG-K(Ac)-GG-K(Ac)-GLG-K(Ac)-GGA-K(Ac)-RHRKVGG-K as substrate preincubated for 15 mins followed by substrate addition measured after 30 mins by alpha screen assay relative to control
# [3] = target: T1, Bromodomain-containing protein 4; experiment: Inhibition of BRD4 BD1 (unknown origin) using biotin labelled NeC: SGRG-K(Ac)-GG-K(Ac)-GLG-K(Ac)-GGA-K(Ac)-RHRKVGG-K as substrate preincubated for 15 mins followed by substrate addition measured after 30 mins by alpha screen assay
# MV4-11 = experiment: Antiproliferative activity against human MV4-11 cells after 72 hrs by CellTiter Glo luminescent assay; format: functional, cell-based; conditions: MV4-11, 72 h
# MDA-MB-231 = experiment: Antiproliferative activity against human MDA-MB-231 cells after 72 hrs by CellTiter Glo luminescent assay; format: functional, cell-based; conditions: MDA-MB-231, 72 h
# MM1.S = experiment: Antiproliferative activity against human MM1S cells after 72 hrs by CellTiter Glo luminescent assay; format: functional, cell-based
# [4] = target: T1, Bromodomain-containing protein 4
# Description: Stabilization of BRD4 BD1 (unknown origin) assessed as change in melting temperature at protein to test compound molar ratio of 1:40 by SYPRO Orange dye based fluorescence analysis
# hERG (KCNH2) = hERG (KCNH2) (Homo sapiens, UniProt Q12809); experiment: in vitro; conditions: CHO cells expressing human ERG
# Sequence of hERG (KCNH2) (Q12809 whole entry, the tested form may be a part): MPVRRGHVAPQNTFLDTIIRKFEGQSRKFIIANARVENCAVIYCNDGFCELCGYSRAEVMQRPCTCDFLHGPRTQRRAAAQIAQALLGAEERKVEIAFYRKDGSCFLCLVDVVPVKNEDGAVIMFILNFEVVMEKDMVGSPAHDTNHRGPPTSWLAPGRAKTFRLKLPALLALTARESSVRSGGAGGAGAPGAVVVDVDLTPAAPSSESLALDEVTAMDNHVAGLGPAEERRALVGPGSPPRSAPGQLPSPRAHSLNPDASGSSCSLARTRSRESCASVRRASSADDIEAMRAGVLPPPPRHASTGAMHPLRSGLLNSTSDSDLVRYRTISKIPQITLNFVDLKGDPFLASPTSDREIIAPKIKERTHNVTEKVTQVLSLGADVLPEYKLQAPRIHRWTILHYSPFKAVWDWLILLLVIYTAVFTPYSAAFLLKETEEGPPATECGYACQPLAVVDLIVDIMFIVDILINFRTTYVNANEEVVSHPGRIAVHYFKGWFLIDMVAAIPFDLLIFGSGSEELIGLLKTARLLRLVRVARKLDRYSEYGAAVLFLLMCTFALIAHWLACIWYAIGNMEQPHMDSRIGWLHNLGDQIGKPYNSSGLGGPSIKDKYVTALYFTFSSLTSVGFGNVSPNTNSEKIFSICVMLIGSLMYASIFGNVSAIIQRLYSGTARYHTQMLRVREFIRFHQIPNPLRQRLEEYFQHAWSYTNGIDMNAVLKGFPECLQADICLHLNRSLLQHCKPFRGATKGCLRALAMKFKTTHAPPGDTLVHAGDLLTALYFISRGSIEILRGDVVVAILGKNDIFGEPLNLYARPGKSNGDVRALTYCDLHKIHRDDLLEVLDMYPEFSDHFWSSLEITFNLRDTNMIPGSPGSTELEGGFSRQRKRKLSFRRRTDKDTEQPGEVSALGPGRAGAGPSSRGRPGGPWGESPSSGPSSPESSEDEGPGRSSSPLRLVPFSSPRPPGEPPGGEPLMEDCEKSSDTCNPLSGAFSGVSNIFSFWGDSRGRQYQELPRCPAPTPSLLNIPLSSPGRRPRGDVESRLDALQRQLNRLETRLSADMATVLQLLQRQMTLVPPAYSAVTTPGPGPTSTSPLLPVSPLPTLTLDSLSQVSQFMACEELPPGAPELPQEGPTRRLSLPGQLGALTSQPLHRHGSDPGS
# Description: Inhibition of human ERG expressed in CHO cells at 40 uM at -80 mV holding potential after 2.5 mins by Qpatch clamp assay relative to control
# [5] = target: T1, Bromodomain-containing protein 4; experiment: Inhibition of recombinant full length human N-terminal His6-tagged BRD4 (2 to 1362 residues) expressed in baculovirus infected insect cells using histone H4 peptide as substrate by alpha screen assay
# [6] = target: T1, Bromodomain-containing protein 4; experiment: Inhibition of BRD4 in human MV4-11 cells assessed as down regulation of c-myc after 6 hrs by Western blot analysis; format: cell-based
# [7] = target: T1, Bromodomain-containing protein 4; experiment: Inhibition of BRD4 in human MM1S cells assessed as down regulation of c-myc after 6 hrs by Western blot analysis; format: cell-based
# [8] = Half life in human hepatocytes at 1 uM up to 120 mins by LC/MS analysis; format: ADME, cell-based, Hepatocyte
# [9] = target: T1, Bromodomain-containing protein 4; experiment: Inhibition of BRD4 in human MDA-MB-231 cells assessed as down regulation of c-myc at 3.125 to 50 uM after 6 hrs by Western blot analysis; format: cell-based
# [10] = target: T1, Bromodomain-containing protein 4; experiment: Inhibition of BRD4 in human MV4-11 cells assessed as down regulation of c-myc at 3.125 to 50 uM after 6 hrs by Western blot analysis; format: cell-based
# [11] = target: T1, Bromodomain-containing protein 4; experiment: Stabilization of BRD4 BD1 (unknown origin) assessed as change in melting temperature at protein to test compound molar ratio of 1:80 by SYPRO Orange dye based fluorescence analysis
# [12] = target: T1, Bromodomain-containing protein 4; experiment: Stabilization of BRD4 BD1 (unknown origin) assessed as change in melting temperature at protein to test compound molar ratio of 1:20 by SYPRO Orange dye based fluorescence analysis
# [13] = target: T1, Bromodomain-containing protein 4; experiment: Stabilization of BRD4 BD1 (unknown origin) assessed as change in melting temperature at protein to test compound molar ratio of 1:10 by SYPRO Orange dye based fluorescence analysis
structure (smiles),measurement,setting,value
Cc1cc(O)c2cccc(O)c2n1,inhibition,[1],-0%
COc1ccc(C)cc1/N=N/c1ccc(O)c2nc(C=O)ccc12,inhibition,[2],20%
Oc1ccc(Cn2cccn2)c2cccnc12,IC50,[3],76 nM
same,IC50,MV4-11,1600 nM
same,IC50,MDA-MB-231,3600 nM
same,IC50,MM1.S,700 nM
same,ΔTm,[4],4.5 °C
same,"inhibition at 2.5 min, 40 µM",hERG (KCNH2),8.3%
Cc1cc2ncn(Cc3ccc(O)c4ncccc34)c2cc1C,inhibition,[2],23%
O=C(Cc1ccccc1)N/N=C/c1ccc(O)c2ncccc12,IC50,[3],4700 nM
same,inhibition,[2],82%
Oc1ccc(CNc2cccc(C(F)(F)F)c2)c2cccnc12,IC50,[3],4800 nM
same,inhibition,[2],84%
O=S(=O)(O)c1ccc2cccc(O)c2n1,inhibition,[1],47.4%
Oc1c(Br)cc(Br)cc1/C=C/c1ccc2cccc(O)c2n1,inhibition,[1],-0%
Oc1c(Br)cc(/C=C/c2ccc3cccc(O)c3n2)cc1Br,inhibition,[1],-0%
CN(C)c1ccc2cccc(O)c2n1,inhibition,[2],-0%
O=[N+]([O-])c1cc([N+](=O)[O-])c2cccnc2c1O,inhibition,[2],27%
COc1ccc(C)cc1/N=N/c1ccc(O)c2nc(/C=N/O)ccc12,inhibition,[2],24%
Cc1cc(C)c2ccc(/C=N/O)nc2c1O,inhibition,[2],6%
O=c1oc2ccc(Cl)cc2n1Cc1ccc(O)c2ncccc12,inhibition,[2],16%
Nc1cc(S(=O)(=O)O)c2cccnc2c1O,inhibition,[2],-0%
Oc1ccc(CN2CCn3c(nnc3C(F)(F)F)C2)c2cccnc12,IC50,[3],68 nM
same,IC50,MV4-11,22400 nM
same,ΔTm,[4],4.9 °C
Cc1sc2c(c1C)C(c1ccccc1)=N[C@@H](CC(=O)OC(C)(C)C)c1nnc(C)n1-2,IC50,[5],33 nM
Cc1ccc2c(Cn3ccnc3)ccc(O)c2n1,inhibition,[2],41%
Cn1c(/N=N/c2ccc(O)c3ncccc23)nc2ccccc21,IC50,[3],370 nM
same,inhibition,[2],100%
Oc1ccc(Cn2cncn2)c2cccnc12,IC50,[3],95 nM
same,IC50,MV4-11,5200 nM
same,IC50,MDA-MB-231,6700 nM
same,IC50,MM1.S,4300 nM
same,ΔTm,[4],3.2 °C
O=C(C[n+]1cccc2cccc(O)c21)c1ccc(Cl)cc1,inhibition,[1],-0%
Oc1ccc(Cn2nnc3ccccc32)c2cccnc12,IC50,[3],155 nM
same,IC50,MV4-11,1000 nM
same,IC50,MDA-MB-231,1300 nM
same,IC50,MM1.S,300 nM
same,ΔTm,[4],4.3 °C
same,"inhibition at 2.5 min, 40 µM",hERG (KCNH2),24%
Oc1ccc(CNc2ccc(C(F)(F)F)cc2)c2cccnc12,IC50,[3],4800 nM
Oc1ccc(CSc2ccccc2)c2cccnc12,IC50,[3],3000 nM
same,inhibition,[2],86%
O=S(=O)(O)c1ccc(/N=N/c2ccc(O)c3ncccc23)cc1,inhibition,[2],-0%
Cc1cc(C)c2ccc(C=O)nc2c1O,inhibition,[2],-0%
CC1=NN(c2ccc3cccc(O)c3n2)C(=O)C1,IC50,[3],1000 nM
same,inhibition,[2],99%
Oc1cccc2ccc(/C=C/c3ccc(-c4cccc(Br)c4)o3)nc12,inhibition,[1],< 7.8%
Oc1ccc(Cn2cnc3ccccc32)c2cccnc12,IC50,[3],337 nM
same,IC50,MV4-11,1000 nM
same,IC50,MDA-MB-231,4700 nM
same,IC50,MM1.S,3000 nM
same,inhibition,[6],Dose-dependent effect
same,inhibition,[7],Dose-dependent effect
same,half-life at 1 µM,[8],31 min
same,ΔTm,[4],3.1 °C
same,"inhibition at 2.5 min, 40 µM",hERG (KCNH2),33%
COC(=O)C(O)(c1cc(C)c2cccnc2c1O)C(F)(F)F (stereo not drawn),inhibition,[1],97%
O=[N+]([O-])c1cccc(-c2ccc(/C=C/c3ccc4cccc(O)c4n3)o2)c1,inhibition,[1],-0%
O=[N+]([O-])c1ccc2c(c1)ncn2Cc1ccc(O)c2ncccc12,IC50,[3],107 nM
same,IC50,MV4-11,1000 nM
same,IC50,MDA-MB-231,1100 nM
same,IC50,MM1.S,10900 nM
same,inhibition,[9],inactive
same,inhibition,[10],Active
same,half-life at 1 µM,[8],27 min
same,ΔTm,[4],4 °C
CCCOCc1ccc(O)c2ncccc12,IC50,[3],2100 nM
same,inhibition,[2],96%
O=C(CCc1ccccc1)N/N=C/c1ccc(O)c2ncccc12,IC50,[3],4300 nM
same,inhibition,[2],86%
Oc1ccc(CNc2ccccc2Br)c2cccnc12,inhibition,[1],46%
CC(=O)Oc1ccc(Cn2ccnc2)c2cccnc12,IC50,[3],61 nM
same,IC50,MV4-11,28500 nM
same,ΔTm,[4],4.3 °C
Oc1ccc(Cn2cnc(F)c2)c2cccnc12,IC50,[3],70 nM
same,IC50,MV4-11,2200 nM
same,IC50,MDA-MB-231,34300 nM
same,IC50,MM1.S,1200 nM
same,inhibition,[6],Dose-dependent effect
same,inhibition,[7],Dose-dependent effect
same,half-life at 1 µM,[8],23 min
same,ΔTm,[4],4.6 °C
same,"inhibition at 2.5 min, 40 µM",hERG (KCNH2),10%
N=C(N)NCCC[C@H](NC(=O)CCC(=O)OC[N+]1(c2cc(=O)c3cccc(-c4ccccc4)c3o2)CCOCC1)C(=O)NCC(=O)N[C@@H](CC(=O)O)C(=O)N[C@@H](CO)C(=O)[O-] [SF-1126],IC50,[5],5300 nM
Oc1cccc2ccc(N3CCCCC3)nc12,inhibition,[2],-0%
CC(C)(C)OC(=O)Oc1ccc(Cn2c(-c3cscn3)nc3ccccc32)c2cccnc12,inhibition,[2],11%
COc1nnc2ccc(N3CCC(c4ccc(OCCN5CCN(C)C(=O)C5C)cc4)CC3)nn12 (stereo not drawn),IC50,[5],1.7 nM
CCOC(=O)C1CCCN(Cc2ccc(O)c3ncccc23)C1 (stereo not drawn),IC50,[3],738 nM
same,inhibition,[1],97.8%
Cc1nnn(C)c1-c1cnc2c3ccc(C(C)(C)O)cc3n(C(c3ccccc3)C3CCOCC3)c2c1 (stereo not drawn),IC50,[5],< 5 nM
O=[N+]([O-])c1ccc(O)c2ncccc12 [NITROXOLINE],IC50,MV4-11,4900 nM
same,ΔTm,[4],3.9 °C
O=C(N/N=C/c1ccc(O)c2ncccc12)c1cccc(Br)c1,IC50,[3],5200 nM
same,inhibition,[2],73%
Oc1ccc(CN2CCCCCC2)c2cccnc12,IC50,[3],670 nM
same,inhibition,[1],46 to 99%
C=CC[n+]1cccc2cccc(O)c21,inhibition,[1],-0%
Cc1ccc(C(=O)C[n+]2cccc3cccc(O)c32)cc1,inhibition,[1],-0%
O=C(C[n+]1cccc2cccc(O)c21)c1ccc(F)cc1,inhibition,[1],-0%
O=C1c2ccccc2C(=O)N1Cc1ccc(O)c2ncccc12,inhibition,[2],30%
O=[N+]([O-])c1cccc(S(=O)(=O)Nc2ccc(O)c3ncccc23)c1,inhibition,[2],-0%
Nc1ccc(-c2nc3ccc(-c4nc5ccc(N)cc5[nH]4)cc3[nH]2)cc1,inhibition,[2],-0%
CC(C)(CCl)C(=O)Oc1ccc(Cn2ccnc2)c2cccnc12,IC50,[3],54 nM
same,IC50,MV4-11,8900 nM
same,IC50,MDA-MB-231,12400 nM
same,IC50,MM1.S,3600 nM
same,ΔTm,[4],2.4 °C
Oc1ccc(COn2nnc3ccccc32)c2cccnc12,IC50,[3],82 nM
same,IC50,MV4-11,12700 nM
same,ΔTm,[4],4.4 °C
Cc1ccc2c(Cn3cnc(F)c3)ccc(OC(=O)OC(C)(C)C)c2n1,IC50,[3],46 nM
same,IC50,MV4-11,2900 nM
same,IC50,MDA-MB-231,2700 nM
same,IC50,MM1.S,1100 nM
same,half-life at 1 µM,[8],1.6 min
same,ΔTm,[4],4.6 °C
Nc1ccc2c(Cn3ccnc3)ccc(O)c2n1,IC50,[3],292 nM
same,IC50,MV4-11,20400 nM
same,ΔTm,[4],3.8 °C
Oc1ccc(CNc2ccc(Cl)cn2)c2cccnc12,inhibition,[2],12%
Oc1cccc2ccc(/C=C/c3cccc(OCc4ccccc4Cl)c3)nc12,inhibition,[1],-0%
CC(=O)Oc1ccc(Cn2cnc(F)c2)c2cccnc12,IC50,[3],70 nM
same,IC50,MV4-11,2900 nM
same,IC50,MDA-MB-231,2200 nM
same,IC50,MM1.S,1100 nM
same,ΔTm,[4],4.7 °C
Oc1ccc(Cn2ccnc2)c2cccnc12,IC50,[3],101 nM
same,IC50,MV4-11,27000 nM
same,half-life at 1 µM,[8],21 min
same,ΔTm,[11],5 °C
same,ΔTm,[12],2.8 °C
same,ΔTm,[13],1.8 °C
same,ΔTm,[4],3.9 °C
same,"inhibition at 2.5 min, 40 µM",hERG (KCNH2),10%
CCOc1c(Br)cc(Br)cc1/C=C/c1ccc2cccc(O)c2n1,inhibition,[1],-0%
Oc1ccc(CSc2nc3ccccc3s2)c2cccnc12,inhibition,[2],18%
O=C(Oc1ccc(Cn2ccnc2)c2cccnc12)c1ccccc1,IC50,[3],67 nM
same,IC50,MV4-11,9000 nM
same,IC50,MDA-MB-231,12300 nM
same,IC50,MM1.S,2900 nM
same,half-life at 1 µM,[8],1.4 min
same,ΔTm,[4],3.8 °C
O=S(=O)(Nc1ccc(O)c2ncccc12)c1ccc(Cl)cc1,inhibition,[2],-0%
Cc1cc(C)c2ccc(NN)nc2c1O,IC50,[3],18000 nM
same,inhibition,[1],88%
CC(C)(C)OC(=O)Oc1ccc(Cn2ccnc2)c2cccnc12,IC50,[3],176 nM
same,IC50,MV4-11,11500 nM
same,IC50,MDA-MB-231,31500 nM
same,IC50,MM1.S,1800 nM
same,ΔTm,[4],4.5 °C
O=C1c2ccccc2C(=O)N1CCCOc1ccc(Cn2ccnc2)c2cccnc12,inhibition,[2],21%
O=C1CN(Cc2ccc(O)c3ncccc23)Cc2ncccc2N1,IC50,[3],92 nM
same,IC50,MV4-11,9600 nM
same,ΔTm,[4],4.3 °C
O=C(C[n+]1cccc2cccc(O)c21)c1ccccc1,inhibition,[1],-0%
Cc1cc(C)n(-c2ccc3c(Cl)cc(Cl)c(O)c3n2)n1,inhibition,[2],-0%
Oc1ccc(Cn2c(-c3cscn3)nc3ccccc32)c2cccnc12,IC50,[3],73 nM
same,IC50,MV4-11,1500 nM
same,IC50,MDA-MB-231,3700 nM
same,IC50,MM1.S,2100 nM
same,ΔTm,[4],4.7 °C
